The structures appear in SMILES notation.

The subject of one test is LS411N. The test can be described thus: 72 hr cell titer Glo proliferation assay, BRAFV600E mutant CRC cell lines. Conditions: Homo sapiens, LS-411N, single agent. The format is cell-based. The protocol: (§1) Single agent and combinatorial effects on proliferation of inhibitors of RAF (Compound of Formula (I)) and PIK3Ca (Compound X) kinases in seven BRAF-mutant CRC-derived cell lines. All cell lines express the BRAFV600E protein. Cells harboring known or putative activating mutations in the PI3Kα gene are marked with a (*) and cells with PTEN loss marked with a (#). Cell proliferation was measured in 72 hr cell titer Glo™ assays and all results supplied are the result of at least triplicate measurements. Shown are single agent IC50 values for the Compound of Formula (I) and Compound X. Synergy score (SS) measurements as well as the combination index (C150) at the 50% effect level are given for each combination) in Table 6. Interactions were deemed synergistic when SS values were ≥2.0 and CI values were ≤0.5. Interactions were deemed additive/synergistic when either SS values were ≥2.0 but CI values were >0.5 or SS values were <2.0 but CI values were ≤0.5. Interactions where termed additive when SS values were <2.0 and CI values were >0.5. Synergy calls are given in the “effect description” columns.
A general note: Cellular ATP, detected with luciferase, serves as a proxy for viable cell number.

For another test, the system named is SW1417. The test is described as above. Type of test: cell-based. The conditions noted are these: Homo sapiens, SW1417, single agent. As for the experimental part: as §1
For a further test, the system named is COLO 205. The description is as above. The format is cell-based. The conditions noted are these: Homo sapiens, COLO 205, single agent. The protocol:
as §1

Another test relates to RKO. The test is described as above. Type of test: cell-based. The conditions noted are these: Homo sapiens, RKO (PI3Kα mutation), single agent. The protocol: as §1
In the next test the test system is OUMS-23. The test is described as above. Type of test: cell-based. Conditions: OUMS-23 (PTEN loss), single agent. As for the experimental part:
as §1

Another test relates to CL-34. The test is described as above. Conditions: CL-34, single agent. The format is cell-based. As for the experimental part:
as §1

In another test the test system is HT-29. The test is described as above. Type of test: cell-based. The conditions noted are these: Homo sapiens, HT-29 (PI3Kα mutation), single agent. The protocol: as §1
For test [1], the system named is A-375 cells. The test can be described thus: ATP-based CTG (Cell Titer Glo) cell viability assay, 72 h. The conditions noted are these: Homo sapiens, A-375 parent, single agent. The protocol: (§2) Compound stocks are prepared in DMSO at a final concentration of 10 mM. Working stocks are serially diluted in the appropriate cell culture medium in 3-fold increments to achieve final assay concentrations ranging from 2.7 μM to 1.2 nM.
(§3) A-375 and WM-266-4 cells were purchased from American Type Culture Collection (ATCC). The A-375 cells were cultured in DMEM medium (ATCC) and the WM-266-4 cells were cultured in EMEM medium (ATCC) both supplemented with 10% fetal bovine serum (Gibco) and incubated at 37° C./5% CO2. The cell lines engineered to express commonly occurring alleles indicative of resistance were acquired from Novartis-Emeryville. These resistant models include, A-375 cells expressing mutant MEK1P124L, truncated p61-BRAFV600E, or mutant NRASQ61K, and WM-266-4 cells expressing mutant MEK1C121S, truncated p61-BRAFV600E, or mutant NRASQ61K. These cells were cultured in the appropriate parental medium with selection marker G418 and in the presence of 5 uM LFE158 (MEK mutants) or LIH720 (truncated p61-BRAFV600E).
(§4) For screening, cells were seeded in 80 ul of medium in 384-well plates (Thermo Scientific, cat#4332) at 500 (A-375) or 750 (WM-266-4) cell densities per well using a MultiDrop Combi (Thermo-Fisher) with an 8-channel standard cassette. To promote an even distribution of cells across the entire well, cells were briefly centrifuged at 1000 RPM and incubated at room temperature 30 minutes. All plates were incubated at 37° C., 5% CO2 for 24 h prior to compound addition. Compound stock was freshly prepared in the appropriate culture medium, and added using a PAA robot equipped with a 200n1 pin tool. In a minimum of three replicate wells, single agent and combination effects after 72 hours, were assessed by both quantification of cellular ATP levels via Cell Titer Glo (Promega) according to the manufacturer's protocol and by microscopy imaging. For imaging, cells were fixed to the plates and permeabilized with a solution of 10% PFA, 0.3% TX-100 in PBS via a WellMate dispenser with controlled dispensing speeds. Cell nuclei were stained with Hoechst 33342 (H3570, Invitrogen), and all necessary washing steps were performed by a BioTek washer.
(§5) Data comprised triplicate measurements for each treatment (compound) condition, 42 replicates of DMSO-treated wells, and duplicates of Staurosporin-treated wells. The data was normalized to the median of the DMSO measurements and summarized by calculating the median of the triplicates. Data was imported into Chalice to calculate compound synergies.

Test [2] relates to A-375 cells expressing mutant MEK1P124L. The test is described as above. Conditions: Homo sapiens, A-375 MEK1P124L, single agent. As for the experimental part:
as §2, §3, §4, §5

Test [3] deals with WM-266-4 cells. The test is described as above. Conditions: Homo sapiens, WM-266-4 parent, single agent. As for the experimental part: as §2, §3, §4, §5
For test [4], the system named is WM-266-4 cells expressing mutant MEK1C121S. Described as above. Conditions: Homo sapiens, WM-266-4 MEK1C121S, single agent. The protocol:
as §2, §3, §4, §5

In test [5] the test system is A-375 cells. The test can be described thus: Microscopy imaging assay (viable nuclei count), 72 h. The format is cell-based. The conditions noted are these: Homo sapiens, A-375 parent, single agent. As for the experimental part: as §2, §3, §4
(§6) An automated image analysis pipeline was established using custom-made scripts in the open-source, statistical programming language R, and functions of the BioConductor package EBImage. The goal was to quantify the number of viable nuclei (cells) per well as an approximation for cell viability. The pipeline was comprised of seven steps: (I.) smoothing of the image to reduce the number of intensity peaks, (II.) application of a thresholding function to separate the foreground (signal) from the background (noise), (III.) identification of local maxima in the foreground that serve as seeds for the nuclei, (IV.) filtering of local maxima in close proximity, (V.) propagation of the nuclei from remaining local maxima, (VI.) and extraction of object features from the propagated nuclei (numbers of nuclei, size features and intensity features). As a last step (VII.), to exclude debris (e.g. fragmented nuclei) from counting, objects identified in DMSO- and Staurosporin-treated wells were used to obtain feature distributions for viable and fragmented nuclei, respectively. These were used to set cut-offs differentiating between viable and fragmented nuclei. The number of fragmented nuclei was subtracted from the total number of identified objects and the result was reported as final count for that well.
as §5

Test [6] deals with A-375 cells expressing mutant MEK1P124L. The test is described as above. Conditions: Homo sapiens, A-375 MEK1P124L, single agent. Type of test: cell-based. As for the experimental part:
as §2, §3, §4, §6, §5

Test [7] has as its system WM-266-4 cells. Described as above. The format is cell-based. Conditions: Homo sapiens, WM-266-4 parent, single agent. The protocol:
as §2, §3, §4, §6, §5

For test [8], the system named is A-375 cells expressing mutant NRASQ61K. The test is described as above. Conditions: Homo sapiens, A-375 NRASQ61K, single agent. Type of test: cell-based. As for the experimental part: as §2, §3, §4, §6, §5
The subject of test [9] is WM-266-4 cells expressing mutant MEK1C121S. The test is described as above. Type of test: cell-based. The conditions noted are these: Homo sapiens, WM-266-4 MEK1C121S, single agent. The protocol: as §2, §3, §4, §6, §5

As a reminder, the IC50 is the midpoint of a concentration-inhibition curve. On to `COC(=O)N[C@@H](C)CNc1nccc(-c2cn(C(C)C)nc2-c2cc(Cl)cc(NS(C)(=O)=O)c2F)n1` [Compound of Formula (I)], for which the IC50 in the test on LS411N is 0.018 µM; in the test with SW1417, 0.235 µM; with COLO 205, 0.005 µM; in the test with RKO it was 1.97 µM; with OUMS-23 it was more than 2.7 µM; in the test on CL-34 it was 0.03 µM. Also, the 50% inhibitory concentration (IC50) came to 0.049 µM in the test with HT-29; 0.004 µM with A-375 cells [1]; 0.333 µM in [2]; 0.002 µM in the test on WM-266-4 cells [3]; 0.035 µM in test [4]; 0.004 µM in the test with A-375 cells [5]. Moreover, the half-inhibitory concentration (IC50) in test [6] came to 0.3 µM; in the test with WM-266-4 cells [7] it was 0.003 µM; in test [8], 0.133 µM; in [9] it was 0.058 µM.

These data come from patent US10548894B2, “Combination therapy” (Array BioPharma Inc., priority 2013, dated 2020).
